Measured values published in ChEMBL document CHEMBL1154224, “Spiropiperidine CCR5 antagonists” (Bioorg Med Chem Lett, 2009).

Key:
[1] = Half life in dog at 1 mg/kg, iv; format: ADME, organism-based, Canis lupus familiaris; parameters: dose 1 mg/kg, route intravenous; details: in vivo
[2] = molecular target: C-C chemokine receptor type 5 (Homo sapiens, UniProt P51681); assay: Displacement of [125I]RANTES from human CCR5 receptor co-transfected with Galphai6 in CHO cells; format: cell-based
[3] = AUC in dog at 1 mg/kg, po; format: ADME, organism-based, Canis lupus familiaris; parameters: dose 1 mg/kg, route oral; details: plasma
[4] = Volume of distribution at steady state in dog at 1 mg/kg, iv; format: ADME, organism-based, Canis lupus familiaris; parameters: dose 1 mg/kg, route intravenous; details: in vivo, read-out: Vdss
[5] = Cmax in rat at 1 mg/kg, po; format: ADME, organism-based; parameters: dose 1 mg/kg, route oral; details: in vivo
[6] = Clearance in cynomolgus monkey at 1 mg/kg, iv; format: ADME, organism-based, Macaca fascicularis; parameters: dose 1 mg/kg, route intravenous; details: in vivo
[7] = Clearance in rat at 1 mg/kg, iv; format: ADME, organism-based; parameters: dose 1 mg/kg, route intravenous; details: in vivo
[8] = Fraction unbound in rat plasma; format: ADME, cell-free
[9] = Cmax in dog at 1 mg/kg, po; format: ADME, organism-based, Canis lupus familiaris; parameters: dose 1 mg/kg, route oral; details: in vivo
[10] = molecular target: T1, C-C chemokine receptor type 3 (Homo sapiens, UniProt P51677); assay: Binding affinity to human CCR3 receptor
T1 sequence (P51677 whole entry): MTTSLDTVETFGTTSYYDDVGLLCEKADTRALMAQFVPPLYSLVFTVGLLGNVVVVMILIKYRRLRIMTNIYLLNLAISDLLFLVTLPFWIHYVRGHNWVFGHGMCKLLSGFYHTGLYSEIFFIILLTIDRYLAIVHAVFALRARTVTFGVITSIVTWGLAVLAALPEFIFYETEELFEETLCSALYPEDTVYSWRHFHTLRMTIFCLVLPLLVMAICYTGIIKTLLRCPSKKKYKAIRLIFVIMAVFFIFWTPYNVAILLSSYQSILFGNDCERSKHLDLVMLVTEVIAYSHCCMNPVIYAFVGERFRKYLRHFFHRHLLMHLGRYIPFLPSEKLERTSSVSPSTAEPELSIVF

[11] = molecular target: T2, C-C chemokine receptor type 6 (Homo sapiens, UniProt P51684); assay: Binding affinity to human CCR6 receptor
T2 sequence (P51684 whole entry): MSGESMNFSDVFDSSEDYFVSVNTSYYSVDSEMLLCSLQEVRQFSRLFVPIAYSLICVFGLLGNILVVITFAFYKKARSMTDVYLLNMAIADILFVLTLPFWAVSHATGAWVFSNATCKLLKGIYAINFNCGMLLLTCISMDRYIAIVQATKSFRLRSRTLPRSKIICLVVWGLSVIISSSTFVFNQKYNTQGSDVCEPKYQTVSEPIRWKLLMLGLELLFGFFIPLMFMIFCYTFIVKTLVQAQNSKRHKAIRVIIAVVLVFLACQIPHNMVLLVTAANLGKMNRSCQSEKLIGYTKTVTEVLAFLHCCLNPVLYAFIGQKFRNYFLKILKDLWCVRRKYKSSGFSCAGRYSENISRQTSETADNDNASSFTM

[12] = Oral bioavailability in dog at 1 mg/kg, po; format: ADME, organism-based, Canis lupus familiaris; details: in vivo
[13] = Volume of distribution at steady state in rat at 1 mg/kg, iv; format: ADME, organism-based; parameters: dose 1 mg/kg, route intravenous; details: in vivo, read-out: Vdss
[14] = molecular target: Cytochrome P450 2C19 (Homo sapiens, UniProt P33261); assay: Inhibition of liver CYP2C19; format: ADME, tissue-based
Sequence of Cytochrome P450 2C19 (P33261 whole entry): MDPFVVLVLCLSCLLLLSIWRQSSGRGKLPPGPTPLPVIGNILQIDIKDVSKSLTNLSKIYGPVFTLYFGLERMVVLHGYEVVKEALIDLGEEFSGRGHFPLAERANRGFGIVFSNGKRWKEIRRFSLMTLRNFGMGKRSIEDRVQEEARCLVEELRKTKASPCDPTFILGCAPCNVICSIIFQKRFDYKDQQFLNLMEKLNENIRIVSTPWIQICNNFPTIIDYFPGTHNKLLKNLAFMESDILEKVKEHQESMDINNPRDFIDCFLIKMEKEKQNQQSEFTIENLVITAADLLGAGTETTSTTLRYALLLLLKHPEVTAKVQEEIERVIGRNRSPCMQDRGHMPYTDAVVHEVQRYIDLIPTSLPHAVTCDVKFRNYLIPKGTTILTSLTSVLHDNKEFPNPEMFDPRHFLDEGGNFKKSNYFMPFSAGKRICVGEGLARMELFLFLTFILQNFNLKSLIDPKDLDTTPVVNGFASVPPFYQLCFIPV

[15] = Oral bioavailability in cynomolgus monkey at 1 mg/kg, po; format: ADME, organism-based, Macaca fascicularis; details: in vivo
[16] = molecular target: C-C chemokine receptor type 2 (Homo sapiens, UniProt P41597); assay: Binding affinity to human CCR2b receptor
[17] = Cmax in cynomolgus monkey at 1 mg/kg, po; format: ADME, organism-based, Macaca fascicularis; parameters: dose 1 mg/kg, route oral; details: in vivo
[18] = AUC in rat at 1 mg/kg, po; format: ADME, organism-based; parameters: dose 1 mg/kg, route oral; details: plasma
[19] = Oral bioavailability in rat at 1 mg/kg, po; format: ADME, organism-based; details: in vivo
[20] = Half life in rat at 1 mg/kg, iv; format: ADME, organism-based; parameters: dose 1 mg/kg, route intravenous; details: in vivo
[21] = molecular target: C-X-C chemokine receptor type 4 (Homo sapiens, UniProt P61073); assay: Binding affinity to human CXCR4
Sequence of C-X-C chemokine receptor type 4 (P61073 whole entry): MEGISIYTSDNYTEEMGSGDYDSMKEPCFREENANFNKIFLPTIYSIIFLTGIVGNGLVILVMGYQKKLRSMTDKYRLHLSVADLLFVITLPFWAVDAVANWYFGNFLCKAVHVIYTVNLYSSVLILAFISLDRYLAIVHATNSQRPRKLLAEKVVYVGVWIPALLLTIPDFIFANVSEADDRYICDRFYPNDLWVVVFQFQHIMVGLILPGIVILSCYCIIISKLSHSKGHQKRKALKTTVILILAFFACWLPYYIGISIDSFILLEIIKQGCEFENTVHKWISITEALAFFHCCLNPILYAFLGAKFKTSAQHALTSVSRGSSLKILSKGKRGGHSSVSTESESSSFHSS

[22] = molecular target: Cytochrome P450 2D6 (Homo sapiens, UniProt P10635); assay: Inhibition of liver CYP2D6; format: ADME, tissue-based
Sequence of Cytochrome P450 2D6 (P10635 whole entry): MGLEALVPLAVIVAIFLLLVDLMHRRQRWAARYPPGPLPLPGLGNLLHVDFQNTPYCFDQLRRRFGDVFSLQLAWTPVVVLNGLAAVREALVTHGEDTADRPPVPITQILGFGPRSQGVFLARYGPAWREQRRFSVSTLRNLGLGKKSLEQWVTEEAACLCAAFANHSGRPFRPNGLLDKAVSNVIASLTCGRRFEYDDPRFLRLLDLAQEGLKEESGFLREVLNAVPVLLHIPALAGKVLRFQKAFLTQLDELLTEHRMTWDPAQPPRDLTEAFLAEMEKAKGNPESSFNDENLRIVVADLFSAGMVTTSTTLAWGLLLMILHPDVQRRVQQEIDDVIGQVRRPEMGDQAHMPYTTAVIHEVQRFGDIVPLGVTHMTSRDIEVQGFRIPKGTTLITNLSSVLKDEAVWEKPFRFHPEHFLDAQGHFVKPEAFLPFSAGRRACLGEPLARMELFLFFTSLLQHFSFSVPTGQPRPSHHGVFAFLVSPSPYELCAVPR

[23] = Fraction unbound in dog plasma; format: ADME, cell-free, Canis lupus familiaris
[24] = tested on: Canis familiaris; assay: Clearance in dog at 1 mg/kg, iv; format: ADME, organism-based, Canis lupus familiaris; parameters: dose 1 mg/kg, route intravenous; details: in vivo
[25] = molecular target: Cytochrome P450 2C9 (Homo sapiens, UniProt P11712); assay: Inhibition of liver CYP2C9; format: ADME, tissue-based
Sequence of Cytochrome P450 2C9 (P11712 whole entry): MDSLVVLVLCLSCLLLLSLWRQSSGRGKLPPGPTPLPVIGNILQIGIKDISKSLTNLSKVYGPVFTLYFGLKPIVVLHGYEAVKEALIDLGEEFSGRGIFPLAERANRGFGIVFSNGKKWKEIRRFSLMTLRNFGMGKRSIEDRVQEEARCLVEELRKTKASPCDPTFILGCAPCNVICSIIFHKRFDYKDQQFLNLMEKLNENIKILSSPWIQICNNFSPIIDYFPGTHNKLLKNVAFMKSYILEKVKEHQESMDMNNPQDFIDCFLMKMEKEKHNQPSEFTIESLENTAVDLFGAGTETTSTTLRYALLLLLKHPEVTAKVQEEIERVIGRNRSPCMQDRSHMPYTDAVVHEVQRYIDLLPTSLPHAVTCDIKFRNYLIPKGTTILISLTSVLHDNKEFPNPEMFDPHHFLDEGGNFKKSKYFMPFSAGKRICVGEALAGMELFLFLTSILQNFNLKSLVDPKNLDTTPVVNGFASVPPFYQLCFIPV

[26] = molecular target: T3, Cytochrome P450 1A2 (Homo sapiens, UniProt P05177); assay: Inhibition of liver CYP1A2; format: ADME, tissue-based
T3 sequence (P05177 whole entry): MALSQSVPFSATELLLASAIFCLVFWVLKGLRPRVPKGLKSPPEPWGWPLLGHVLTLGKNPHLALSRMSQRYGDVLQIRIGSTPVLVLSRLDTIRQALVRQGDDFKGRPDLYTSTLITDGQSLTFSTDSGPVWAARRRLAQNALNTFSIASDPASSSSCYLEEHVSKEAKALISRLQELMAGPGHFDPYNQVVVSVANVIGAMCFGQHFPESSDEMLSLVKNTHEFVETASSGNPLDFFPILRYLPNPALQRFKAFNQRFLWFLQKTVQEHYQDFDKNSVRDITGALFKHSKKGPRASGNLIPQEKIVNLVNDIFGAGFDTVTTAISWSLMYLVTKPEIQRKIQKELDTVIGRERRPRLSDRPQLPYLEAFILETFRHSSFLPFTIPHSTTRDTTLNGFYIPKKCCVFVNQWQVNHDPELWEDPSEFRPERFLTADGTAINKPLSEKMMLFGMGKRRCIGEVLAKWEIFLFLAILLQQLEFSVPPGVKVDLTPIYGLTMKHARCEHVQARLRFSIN

[27] = Half life in cynomolgus monkey at 1 mg/kg, iv; format: ADME, organism-based, Macaca fascicularis; parameters: dose 1 mg/kg, route intravenous; details: in vivo
[28] = molecular target: Cytochrome P450 3A4 (Homo sapiens, UniProt P08684); assay: Inhibition of liver CYP3A4; format: ADME, tissue-based
Sequence of Cytochrome P450 3A4 (P08684 whole entry): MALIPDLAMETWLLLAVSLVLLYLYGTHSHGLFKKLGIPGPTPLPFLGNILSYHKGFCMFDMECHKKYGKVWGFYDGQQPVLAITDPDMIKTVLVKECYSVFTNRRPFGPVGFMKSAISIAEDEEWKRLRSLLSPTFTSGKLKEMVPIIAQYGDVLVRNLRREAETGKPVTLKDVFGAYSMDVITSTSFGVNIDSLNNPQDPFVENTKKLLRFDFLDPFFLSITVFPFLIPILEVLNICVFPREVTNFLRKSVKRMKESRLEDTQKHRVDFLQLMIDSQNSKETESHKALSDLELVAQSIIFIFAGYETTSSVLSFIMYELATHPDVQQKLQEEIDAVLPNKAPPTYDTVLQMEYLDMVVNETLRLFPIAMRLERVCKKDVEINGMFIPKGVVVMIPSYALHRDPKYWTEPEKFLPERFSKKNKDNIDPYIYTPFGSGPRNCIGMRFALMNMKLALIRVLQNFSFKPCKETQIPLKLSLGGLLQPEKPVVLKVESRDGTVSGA

[29] = molecular target: T4, C-C chemokine receptor type 4 (Homo sapiens, UniProt P51679); assay: Binding affinity to human CCR4 receptor
T4 sequence (P51679 whole entry): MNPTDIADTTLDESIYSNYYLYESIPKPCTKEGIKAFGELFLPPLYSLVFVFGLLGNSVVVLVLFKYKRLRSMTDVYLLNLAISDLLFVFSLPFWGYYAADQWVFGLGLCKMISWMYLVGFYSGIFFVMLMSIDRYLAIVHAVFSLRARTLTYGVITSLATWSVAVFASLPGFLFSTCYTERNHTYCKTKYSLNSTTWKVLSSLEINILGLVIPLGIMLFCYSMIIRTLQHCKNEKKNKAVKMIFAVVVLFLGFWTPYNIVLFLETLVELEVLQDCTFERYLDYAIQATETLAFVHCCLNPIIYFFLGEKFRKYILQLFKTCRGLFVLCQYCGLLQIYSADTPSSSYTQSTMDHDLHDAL

[30] = molecular target: Voltage-gated inwardly rectifying potassium channel KCNH2 (Homo sapiens, UniProt Q12809); assay: (§1) Inhibition of human ERG
Sequence of Voltage-gated inwardly rectifying potassium channel KCNH2 (Q12809 whole entry): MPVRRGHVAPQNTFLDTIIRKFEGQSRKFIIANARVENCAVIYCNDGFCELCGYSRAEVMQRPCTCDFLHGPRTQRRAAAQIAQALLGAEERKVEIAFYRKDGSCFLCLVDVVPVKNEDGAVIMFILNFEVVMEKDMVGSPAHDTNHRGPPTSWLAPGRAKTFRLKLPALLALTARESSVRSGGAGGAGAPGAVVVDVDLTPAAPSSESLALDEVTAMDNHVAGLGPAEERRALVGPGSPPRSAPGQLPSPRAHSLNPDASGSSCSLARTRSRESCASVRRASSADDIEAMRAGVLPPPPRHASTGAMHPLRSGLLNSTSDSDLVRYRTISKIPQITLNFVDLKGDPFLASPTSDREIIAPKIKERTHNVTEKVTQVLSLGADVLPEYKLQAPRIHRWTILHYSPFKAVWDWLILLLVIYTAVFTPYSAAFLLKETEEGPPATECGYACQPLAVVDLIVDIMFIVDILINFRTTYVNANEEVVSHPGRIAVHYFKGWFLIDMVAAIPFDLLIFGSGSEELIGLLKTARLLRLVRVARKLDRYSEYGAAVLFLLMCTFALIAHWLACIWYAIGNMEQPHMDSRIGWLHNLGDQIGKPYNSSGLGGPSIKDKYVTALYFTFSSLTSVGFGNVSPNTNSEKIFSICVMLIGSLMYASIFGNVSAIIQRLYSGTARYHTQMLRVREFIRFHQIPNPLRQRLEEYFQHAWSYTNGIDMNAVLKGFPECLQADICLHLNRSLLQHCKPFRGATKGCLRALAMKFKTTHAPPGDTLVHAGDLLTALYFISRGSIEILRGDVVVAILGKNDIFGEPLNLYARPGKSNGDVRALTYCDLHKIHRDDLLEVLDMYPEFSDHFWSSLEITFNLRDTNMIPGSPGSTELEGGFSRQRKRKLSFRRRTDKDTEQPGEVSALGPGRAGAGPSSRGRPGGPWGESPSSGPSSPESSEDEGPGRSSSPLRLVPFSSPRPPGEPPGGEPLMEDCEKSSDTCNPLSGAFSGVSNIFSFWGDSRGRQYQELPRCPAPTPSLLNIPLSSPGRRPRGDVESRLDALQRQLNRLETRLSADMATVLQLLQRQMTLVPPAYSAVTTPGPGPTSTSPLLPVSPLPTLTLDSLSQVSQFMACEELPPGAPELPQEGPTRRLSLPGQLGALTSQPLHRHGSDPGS

[31] = molecular target: hERG (KCNH2) (Homo sapiens, UniProt Q12809); assay: as §1; details: human
Sequence of hERG (KCNH2) (Q12809 whole entry): as above

[32] = AUC in cynomolgus monkey at 1 mg/kg, po; format: ADME, organism-based, Macaca fascicularis; parameters: dose 1 mg/kg, route oral; details: plasma
[33] = tested on: Human immunodeficiency virus 1; assay: Antiviral activity against recombinant HIV1 virus infected in human JC53BL cells after 3 days; format: functional, organism-based; details: Human immunodeficiency virus 1, JC53BL, 72 h
[34] = Volume of distribution at steady state in cynomolgus monkey at 1 mg/kg, iv; format: ADME, organism-based, Macaca fascicularis; parameters: dose 1 mg/kg, route intravenous; details: in vivo, read-out: Vdss
[35] = Intrinsic clearance in human liver microsomes assessed per mg of protein; format: ADME, Microsome; details: liver microsomes
[36] = Fraction unbound in monkey plasma; format: ADME, cell-free, Macaca mulatta; details: rhesus monkey
[37] = molecular target: T5, C-C chemokine receptor type 1 (Homo sapiens, UniProt P32246); assay: Binding affinity to human CCR1 receptor
T5 sequence (P32246 whole entry): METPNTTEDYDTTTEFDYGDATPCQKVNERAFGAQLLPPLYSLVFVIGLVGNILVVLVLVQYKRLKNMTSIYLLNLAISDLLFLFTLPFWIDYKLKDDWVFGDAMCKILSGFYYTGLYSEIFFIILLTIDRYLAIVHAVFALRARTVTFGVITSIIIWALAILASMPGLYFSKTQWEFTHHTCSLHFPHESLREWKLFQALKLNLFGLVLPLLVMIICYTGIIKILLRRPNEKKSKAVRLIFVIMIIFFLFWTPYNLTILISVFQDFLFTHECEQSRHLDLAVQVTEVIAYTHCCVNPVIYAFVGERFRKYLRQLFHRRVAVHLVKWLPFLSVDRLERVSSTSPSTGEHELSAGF

[38] = tested on: Human immunodeficiency virus; assay: Antiviral activity against R5-tropic HIV Ba-L infected in human PBMC cells assessed as inhibition of viral replication; format: functional, organism-based; details: Human immunodeficiency virus 1, Ba-L

Sequence of C-C chemokine receptor type 5 (P51681 whole entry): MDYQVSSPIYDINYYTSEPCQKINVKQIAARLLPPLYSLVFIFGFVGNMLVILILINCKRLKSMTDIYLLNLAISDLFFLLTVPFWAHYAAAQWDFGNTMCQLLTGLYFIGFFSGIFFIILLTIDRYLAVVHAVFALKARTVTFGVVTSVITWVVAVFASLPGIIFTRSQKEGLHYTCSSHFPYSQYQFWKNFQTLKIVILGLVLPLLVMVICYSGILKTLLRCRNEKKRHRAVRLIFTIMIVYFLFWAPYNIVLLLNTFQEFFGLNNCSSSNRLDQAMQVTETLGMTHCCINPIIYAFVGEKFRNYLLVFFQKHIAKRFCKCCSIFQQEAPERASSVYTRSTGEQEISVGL

- half-life [1]: 2.9 h
- IC50 [2]: 0.025 µM
- AUC [3]: 700 ng·h/mL
- Vd [4]: 3.2 L/kg
- Cmax [5]: 13 ng/mL
- clearance [6]: 19 mL/min/kg
- clearance [7]: 52 mL/min/kg
- fraction unbound [8]: 0.32
- Cmax [9]: 225 ng/mL
- IC50 [10]: > 50 µM
- IC50 [11]: > 50 µM
- bioavailability [12]: 85%
- Vd [13]: 3.8 L/kg
- Activity [14]: Not Active
- bioavailability [15]: 42%
- IC50 [16]: > 50 µM
- Cmax [17]: 42 ng/mL
- AUC [18]: 54 ng·h/mL
- bioavailability [19]: 10%
- half-life [20]: 1.4 h
- IC50 [21]: > 50 µM
- Activity [22]: Not Active
- fraction unbound [23]: 0.13
- clearance [24]: 20 mL/min/kg
- Activity [25]: Not Active
- Activity [26]: Not Active
- half-life [27]: 3.5 h
- Activity [28]: Not Active
- IC50 [29]: > 50 µM
- AUC [32]: 396 ng·h/mL
- IC50 [33]: 0.006 µM
- Vd [34]: 3 L/kg
- microsomal CLint [35]: 12 µL/min/mg
- fraction unbound [36]: 0.04
- IC50 [37]: > 50 µM
- IC50 [38]: 0.00018 µM
SMILES: CCCC[C@H]1CN(CC2CCOCC2)C(=O)OC12CCN(C1(C)CCN(C(=O)c3c(C)ncnc3C)CC1)CC2
- IC50 [30]: 11.9 µM
- IC20 [31]: 2.9 µM
